A value given as a limit tells only on which side of the number the result lay.

BCL-2 recombinant protein, sequence (P10415 whole entry): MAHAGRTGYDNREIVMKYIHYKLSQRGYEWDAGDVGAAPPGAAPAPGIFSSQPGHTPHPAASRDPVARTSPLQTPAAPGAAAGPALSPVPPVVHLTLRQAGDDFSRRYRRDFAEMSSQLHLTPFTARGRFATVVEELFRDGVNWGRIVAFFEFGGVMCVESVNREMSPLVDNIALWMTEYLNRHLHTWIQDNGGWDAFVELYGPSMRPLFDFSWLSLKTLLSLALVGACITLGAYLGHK

This experiment concerns the target BCL-2 recombinant protein (Homo sapiens, UniProt P10415). Nature of the experiment: Cell free Bcl-2:Bak affinity assay (Bcl-2 Bak), HTRF competition of FAM-Bak peptide. In kind it is binding. The following applies: 10-concentration IC50 mode, 4 nM BCL-2 recombinant protein, 100 nM FAM-Bak, read-out: potency (IC50). Summed up: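 Compounds in 10-point 3-fold dilution preincubated 10 min at RT with 4 nM GST-BCL-2 (20 mM K phosphate pH 7.5, 50 mM NaCl, 1 mM EDTA, 0.005% Triton X-100), then 100 nM FAM-Bak 10 min, anti-GST-Tb added, 60 min RT dark. HTRF read; % inhibition vs DMSO and positive control, IC50 from curve fit.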
In the case of `Cc1c(Cl)c(C(=O)NS(=O)(=O)c2ccc(N3CCN(CC4=C(c5ccc(Cl)cc5)CC(C)(C)CC4)CC3)cc2Oc2cnc3[nH]ccc3c2)cc([N+](=O)[O-])c1OCC1CCOCC1` [Example 81, 2-Chloro-N-[4-[4-[[2-(4-chlorophenyl)-4,4-dimethylcyclohexen-1-yl]methyl]piperazin-1-yl]-2-(1H-pyrrolo[2,3-b]pyridin-5-yloxy)phenyl]sulfonyl-3-methyl-5-nitro-4-(oxan-4-ylmethoxy)benzamide], the IC50 was below 10 nM.

On to `CC1(C)CCC(CN2CCN(c3ccc(S(=O)(=O)NC(=O)c4ccc(COc5ccc(Cl)cc5)c([N+](=O)[O-])c4)c(Oc4cnc5[nH]ccc5c4)c3)CC2)=C(c2ccc(Cl)cc2)C1` [Example 82], for which the IC50 was below 10 nM.

`CC1(C)CCC(CN2CCN(c3ccc(S(=O)(=O)NC(=O)c4ccc(COc5ccc(Cl)cc5)c(F)c4)c(Oc4cnc5[nH]ccc5c4)c3)CC2)=C(c2ccc(Cl)cc2)C1` [Example 83, 4-[(4-Chlorophenoxy)methyl]-N-[4-[4-[[2-(4-chlorophenyl)-4,4-dimethylcyclohexen-1-yl]methyl]piperazin-1-yl]-2-(1H-pyrrolo[2,3-b]pyridin-5-yloxy)phenyl]sulfonyl-3-fluorobenzamide]: the IC50 lay within 10 to 100 nM.

In the case of `COCc1cc(C(=O)NS(=O)(=O)c2ccc(N3CCN(CC4=C(c5ccc(Cl)cc5)CC(C)(C)CC4)CC3)cc2Oc2cnc3[nH]ccc3c2)cc([N+](=O)[O-])c1` [Example 85, N-[4-[4-[[2-(4-chlorophenyl)-4,4-dimethylcyclohexen-1-yl]methyl]piperazin-1-yl]-2-(1H-pyrrolo[2,3-b]pyridin-5-yloxy)phenyl]sulfonyl-3-(methoxymethyl)-5-nitrobenzamide], the half-inhibitory concentration (IC50) fell in the range of 10 to 100 nM.

For `CC1(C)CCC(CN2CCN(c3ccc(S(=O)(=O)NC(=O)c4cc(COc5ccc(Cl)cc5)cc([N+](=O)[O-])c4)c(Oc4cnc5[nH]ccc5c4)c3)CC2)=C(c2ccc(Cl)cc2)C1` [Example 86, 3-[(4-Chlorophenoxy)methyl]-N-[4-[4-[[2-(4-chlorophenyl)-4,4-dimethylcyclohexen-1-yl]methyl]piperazin-1-yl]-2-(1H-pyrrolo[2,3-b]pyridin-5-yloxy)phenyl]sulfonyl-5-nitrobenzamide], the IC50 lay in the range of 10 to 100 nM.

With `COCc1ccc(C(=O)NS(=O)(=O)c2ccc(N3CCN(CC4=C(c5ccc(Cl)cc5)CC(C)(C)CC4)CC3)cc2Oc2cnc3[nH]ccc3c2)cc1[N+](=O)[O-]` [Example 87, N-[4-[4-[[2-(4-chlorophenyl)-4,4-dimethylcyclohexen-1-yl]methyl]piperazin-1-yl]-2-(1H-pyrrolo[2,3-b]pyridin-5-yloxy)phenyl]sulfonyl-4-(methoxymethyl)-3-nitrobenzamide], the IC50 fell in the range of 10 to 100 nM.

For the compound `Cc1c(Cl)c(C(=O)NS(=O)(=O)c2ccc(N3CCN(CC4=C(c5ccc(Cl)cc5)CC(C)(C)CC4)CC3)cc2Oc2cnc3[nH]ccc3c2)cc([N+](=O)[O-])c1OCc1ccc(Cl)cc1` [Example 88, 2-Chloro-N-[4-[4-[[2-(4-chlorophenyl)-4,4-dimethylcyclohexen-1-yl]methyl]piperazin-1-yl]-2-(1H-pyrrolo[2,3-b]pyridin-5-yloxy)phenyl]sulfonyl-4-[(4-chlorophenyl)methoxy]-3-methyl-5-nitrobenzamide], the IC50 is below 10 nM.

For the compound `CC1(C)CCC(CN2CCN(c3ccc(S(=O)(=O)NC(=O)c4ccc(COc5ccc(Cl)cc5)c(S(C)(=O)=O)c4)c(Oc4cnc5[nH]ccc5c4)c3)CC2)=C(c2ccc(Cl)cc2)C1` [Example 89, 4-[(4-chlorophenoxy)methyl]-N-[4-[4-[[2-(4-chlorophenyl)-4,4-dimethylcyclohexen-1-yl]methyl]piperazin-1-yl]-2-(1H-pyrrolo[2,3-b]pyridin-5-yloxy)phenyl]sulfonyl-3-methylsulfonylbenzamide], the IC50 fell in the range of 100 to 1000 nM.

Regarding `CC1(C)CCC(CN2CCN(c3ccc(S(=O)(=O)NC(=O)c4ccc(CN5CCOCC5)c([N+](=O)[O-])c4)c(Oc4cnc5[nH]ccc5c4)c3)CC2)=C(c2ccc(Cl)cc2)C1` [Example 90, N-[4-[4-[[2-(4-chlorophenyl)-4,4-dimethylcyclohexen-1-yl]methyl]piperazin-1-yl]-2-(1H-pyrrolo[2,3-b]pyridin-5-yloxy)phenyl]sulfonyl-4-(morpholin-4-ylmethyl)-3-nitrobenzamide], the IC50 is 100 to 1000 nM.

In the case of `CC1(C)CCC(CN2CCN(c3ccc(S(=O)(=O)NC(=O)c4ccc(CNc5ccc(Cl)cc5)c([N+](=O)[O-])c4)c(Oc4cnc5[nH]ccc5c4)c3)CC2)=C(c2ccc(Cl)cc2)C1` [Example 91, 4-[(4-chloroanilino)methyl]-N-[4-[4-[[2-(4-chlorophenyl)-4,4-dimethylcyclohexen-1-yl]methyl]piperazin-1-yl]-2-(1H-pyrrolo[2,3-b]pyridin-5-yloxy)phenyl]sulfonyl-3-nitrobenzamide], the IC50 lay within 10 to 100 nM.

Take `CC1(C)CCC(CN2CCN(c3ccc(S(=O)(=O)NC(=O)c4ccc5ccsc5n4)c(Oc4cnc5[nH]ccc5c4)c3)CC2)=C(c2ccc(Cl)cc2)C1` [Example 92, N-[4-[4-[[2-(4-chlorophenyl)-4,4-dimethylcyclohexen-1-yl]methyl]piperazin-1-yl]-2-(1H-pyrrolo[2,3-b]pyridin-5-yloxy)phenyl]sulfonylthieno[2,3-b]pyridine-6-carboxamide]: the IC50 lay in the range of 100 to 1000 nM.

With `CC1(C)CCC(CN2CCN(c3ccc(S(=O)(=O)NC(=O)c4ccnc5sccc45)c(Oc4cnc5[nH]ccc5c4)c3)CC2)=C(c2ccc(Cl)cc2)C1` [Example 93, N-[4-[4-[[2-(4-chlorophenyl)-4,4-dimethylcyclohexen-1-yl]methyl]piperazin-1-yl]-2-(1H-pyrrolo[2,3-b]pyridin-5-yloxy)phenyl]sulfonylthieno[2,3-b]pyridine-4-carboxamide], the IC50 fell in the range of 10 to 100 nM.

For the compound `CC1(C)CCC(CN2CCN(c3ccc(S(=O)(=O)NC(=O)c4ccc([N+](=O)[O-])c(COc5ccc(Cl)cc5)c4)c(Oc4cnc5[nH]ccc5c4)c3)CC2)=C(c2ccc(Cl)cc2)C1` [Example 95, 3-[(4-Chlorophenoxy)methyl]-N-[4-[4-[[2-(4-chlorophenyl)-4,4-dimethylcyclohexen-1-yl]methyl]piperazin-1-yl]-2-(1H-pyrrolo[2,3-b]pyridin-5-yloxy)phenyl]sulfonyl-4-nitrobenzamide], the IC50 was in the range of 100 to 1000 nM.

With `CC1(C)CCC(CN2CCN(c3ccc(S(=O)(=O)NC(=O)c4ccc(CNC5CCOCC5)c([N+](=O)[O-])c4)c(Oc4cnc5[nH]ccc5c4)c3)CC2)=C(c2ccc(Cl)cc2)C1` [Example 96, N-[4-[4-[[2-(4-chlorophenyl)-4,4-dimethylcyclohexen-1-yl]methyl]piperazin-1-yl]-2-(1H-pyrrolo[2,3-b]pyridin-5-yloxy)phenyl]sulfonyl-3-nitro-4-[(oxan-4-ylamino)methyl]benzamide], the IC50 lay within 10 to 100 nM.

For the compound `Cc1cc(S(C)(=O)=O)cc(C(=O)NS(=O)(=O)c2ccc(N3CCN(CC4=C(c5ccc(Cl)cc5)CC(C)(C)CC4)CC3)cc2Oc2cnc3[nH]ccc3c2)n1` [Example 97, N-[4-[4-[[2-(4-Chlorophenyl)-4,4-dimethylcyclohexen-1-yl]methyl]piperazin-1-yl]-2-(1H-pyrrolo[2,3-b]pyridin-5-yloxy)phenyl]sulfonyl-6-methyl-4-methylsulfonylpyridine-2-carboxamide], the IC50 was above 1000 nM.

For `CNc1c([N+](=O)[O-])cc(C(=O)NS(=O)(=O)c2ccc(N3CCN(CC4=C(c5ccc(Cl)cc5)CC(C)(C)CC4)CC3)cc2Oc2cnc3[nH]ccc3c2)c(Cl)c1C` [Example 98, 2-chloro-N-[4-[4-[[2-(4-chlorophenyl)-4,4-dimethylcyclohexen-1-yl]methyl]piperazin-1-yl]-2-(1H-pyrrolo[2,3-b]pyridin-5-yloxy)phenyl]sulfonyl-3-methyl-4-(methylamino)-5-nitrobenzamide], the IC50 fell in the range of 10 to 100 nM.

For the compound `CCNc1c([N+](=O)[O-])cc(C(=O)NS(=O)(=O)c2ccc(N3CCN(CC4=C(c5ccc(Cl)cc5)CC(C)(C)CC4)CC3)cc2Oc2cnc3[nH]ccc3c2)c(Cl)c1C` [Example 99, 2-chloro-N-[4-[4-[[2-(4-chlorophenyl)-4,4-dimethylcyclohexen-1-yl]methyl]piperazin-1-yl]-2-(1H-pyrrolo[2,3-b]pyridin-5-yloxy)phenyl]sulfonyl-4-(ethylamino)-3-methyl-5-nitrobenzamide], the IC50 is 10 to 100 nM.

Take `CC1(C)CCC(CN2CCN(c3ccc(S(=O)(=O)NC(=O)c4ccc(NCC5CCOCC5)c([N+](=O)[O-])c4)c(Oc4cnc5[nH]ccc5c4)c3)CC2)=C(c2ccc(Cl)cc2)C1` [Example 100, N-[4-[4-[[2-(4-chlorophenyl)-4,4-dimethylcyclohexen-1-yl]methyl]piperazin-1-yl]-2-(1H-pyrrolo[2,3-b]pyridin-5-yloxy)phenyl]sulfonyl-3-nitro-4-(oxan-4-ylmethylamino)benzamide]: the IC50 was below 10 nM.

As to `COc1c([N+](=O)[O-])cc(C(=O)NS(=O)(=O)c2ccc(N3CCN(CC4=C(c5ccc(Cl)cc5)CC(C)(C)CC4)CC3)cc2Oc2cnc3[nH]ccc3c2)c(Cl)c1C` [Example 101, 2-chloro-N-[4-[4-[[2-(4-chlorophenyl)-4,4-dimethylcyclohexen-1-yl]methyl]piperazin-1-yl]-2-(1H-pyrrolo[2,3-b]pyridin-5-yloxy)phenyl]sulfonyl-4-methoxy-3-methyl-5-nitrobenzamide], the IC50 lay in the range of 10 to 100 nM.

For the compound `CCOc1c([N+](=O)[O-])cc(C(=O)NS(=O)(=O)c2ccc(N3CCN(CC4=C(c5ccc(Cl)cc5)CC(C)(C)CC4)CC3)cc2Oc2cnc3[nH]ccc3c2)c(Cl)c1C` [Example 102, 2-chloro-N-[4-[4-[[2-(4-chlorophenyl)-4,4-dimethylcyclohexen-1-yl]methyl]piperazin-1-yl]-2-(1H-pyrrolo[2,3-b]pyridin-5-yloxy)phenyl]sulfonyl-4-ethoxy-3-methyl-5-nitrobenzamide], the IC50 lay in the range of 100 to 1000 nM.

The values above are taken from US11622970B2, “BCL-2 inhibitors and their use as pharmaceuticals” (PRELUDE THERAPEUTICS INCORPORATED, priority 2020, dated 2023).
